Assay results reported in patent US9034359B2, “Composition comprising biodegradable hydrating ceramics for controlled drug delivery” (Lidds AB, priority 2003, dated 2015).

Assay: Dog study: plasma concentration of 2-hydroxyflutamide after implant in prostate tissue
Assay type: in vivo
Settings: 30, 60 or 120 mg in calcium sulphate-water implant in prostate tissue
Protocol: Composition according to example 1, composition 2, with three different 2-hydroxyflutamide (HT) concentrations, was tested in a dog study. The concentration profile of HT in prostate tissue in male dogs after local administration of the composition was investigated at different time points. Also a reference implant without HT was implanted in one dog.
Three male dogs are given 30, 60 or 120 mg of 2-hydroxy-flutamide by local implant delivery system in the prostate tissue; the total implantation time was 3 weeks.
The implant drug delivery system was inserted locally into the prostate tissue through sterile needles during rectal ultrasound guidance. The animals were under anesthesia during the insertion procedure.
Blood samples were taken every day for the first week and then once a week for the remaining weeks. Plasma samples were collected in tubes with EDTA and the plasma were transferred to microtubes of 2 ml, (sterile kryotubes from Sarstedt; No. 694.005).
The quantification of the parent drug, 2-hydroxyflutamide, in the plasma and tissue samples, was done by HPLC-MS analysis.

extended plasma profile duration: 3 to 6 days
SMILES: CC(C)(O)C(=O)Nc1ccc([N+](=O)[O-])c(C(F)(F)F)c1 [2-hydroxyflutamide]
